Drawing on patent US20140005163A1 (NOVARTIS AG, priority 2010, published 2014), this text covers IC50 and Papp A→B for 14 compounds.

One series concerns the target T1, mTOR (Homo sapiens, UniProt P42345).
T1 construct: purchased Invitrogen Corporation (Carlsbad/CA, USA) PV4753
The series can be described thus: Biochemical assay for m-TOR by TR-FRET. The following applies: 8 μM ATP, 400 nM GFP-4EBP1, 0.5 nM mTOR. Put shortly: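 Steps: ATP (8 μM final) plus GFP-4EBP1 (400 nM final) combined with mTOR (0.5 nM final), incubated at rt; buffer HEPES pH 7.5 with 10 mM MnCl2, NaCl, EGTA, DTT. Then stopped with EDTA/Tb3+-anti-p4EBP1 pT46 Ab (0.5 nM). Plates read after 15 min.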
On the technique in general: Time-resolved FRET reads energy transfer from a long-lived donor to a nearby acceptor.

The nature of series [1]: Cellular CaCo2 permeability assay from apical to basal (A-B). Type of series: in vitro ADME. To be noted: human, Caco-2, read-out: Pe A-B (permeability). From the text:
The permeability in 10^−6 cm/s of compounds of formula (I) have been confirmed for selected example using a cellular CaCo2 permeability assay from apical to basal (A-B): […]
(In general: Caco-2 cells form a polarised layer with tight junctions and transporters.)

The next series has as its target T2, PI3K gamma (Homo sapiens, UniProt P48736).
T2 construct: His tag (C); made in house; host or cells: baculovirus (pVL1393); Tn5 or TiniPro insect cells; construct from Roger Williams lab, MRC LMB
The series can be described thus: PI3K gamma kinase assay (Kinase-Glo luminescence). The series is classed as biochemical. Put shortly: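 Luminescent ATP-depletion (Kinase-Glo) assay with 150 nM PI3Kγ, 1 μM ATP and 10 μg/mL phosphatidylinositol in 10 mM Tris-HCl pH 7.5, 3 mM MgCl2, 50 mM NaCl, 0.05% CHAPS, 1 mM DTT; 120 min at room temperature. Eight-point dilutions; IC50 by four-parameter logistic fit.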
A general note: Kinase-Glo measures the ATP left after a reaction by luminescence.

A further series has as its target T3, PI3K delta (Homo sapiens, UniProt O00329).
T3 construct: for the full-length p110-d subunit are generated and fused by overlapping PCR; p85(iSH2) fusion partner (see partner chain) (N); His tag (C); made in house; host or cells: baculovirus; Tn5 (Trichoplusia ni) or TiniPro insect cells
The series can be described thus: PI3K delta kinase assay (Kinase-Glo luminescence). Type of series: biochemical. Put shortly:
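Construct BV-1060, p85 iSH2–linker–full-length p110δ, His-tagged, at 10 nM, with 1 μM ATP and 10 μg/mL phosphatidylinositol in pH 7.5 Tris, 3 mM MgCl2, 50 mM NaCl, 0.05% CHAPS. Run 60 min at room temperature; remaining ATP read by Kinase-Glo luminescence; IC50 from 4-parameter logistic fit of 8 concentrations.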

By IC50 is commonly meant the concentration that inhibits the measured activity by half.

T2 sequence (P48736 144-1102 limits assumed): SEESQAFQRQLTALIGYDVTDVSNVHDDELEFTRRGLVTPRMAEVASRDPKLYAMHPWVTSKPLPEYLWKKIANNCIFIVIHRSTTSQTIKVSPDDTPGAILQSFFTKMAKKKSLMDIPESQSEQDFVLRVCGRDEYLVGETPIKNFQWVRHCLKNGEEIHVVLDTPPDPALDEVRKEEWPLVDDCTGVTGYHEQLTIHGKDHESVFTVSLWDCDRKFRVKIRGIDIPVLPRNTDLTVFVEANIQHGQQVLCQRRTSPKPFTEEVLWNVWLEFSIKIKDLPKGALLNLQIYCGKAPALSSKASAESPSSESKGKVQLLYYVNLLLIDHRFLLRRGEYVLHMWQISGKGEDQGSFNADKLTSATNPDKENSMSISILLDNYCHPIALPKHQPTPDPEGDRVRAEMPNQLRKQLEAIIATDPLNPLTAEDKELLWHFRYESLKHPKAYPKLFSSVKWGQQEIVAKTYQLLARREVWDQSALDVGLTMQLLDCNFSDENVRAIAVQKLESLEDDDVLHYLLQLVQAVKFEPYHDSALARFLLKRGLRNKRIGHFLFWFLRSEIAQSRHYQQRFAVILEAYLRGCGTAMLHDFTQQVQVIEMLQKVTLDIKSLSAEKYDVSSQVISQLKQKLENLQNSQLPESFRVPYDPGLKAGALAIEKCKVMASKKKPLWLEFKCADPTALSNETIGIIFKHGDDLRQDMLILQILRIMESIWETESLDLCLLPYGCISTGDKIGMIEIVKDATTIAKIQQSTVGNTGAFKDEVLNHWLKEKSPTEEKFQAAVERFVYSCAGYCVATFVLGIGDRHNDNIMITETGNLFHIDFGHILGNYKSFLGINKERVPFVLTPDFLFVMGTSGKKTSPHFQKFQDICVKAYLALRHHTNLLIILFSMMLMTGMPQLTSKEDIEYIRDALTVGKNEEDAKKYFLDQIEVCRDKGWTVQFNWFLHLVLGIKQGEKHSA
T1 sequence (P42345 1360-2549 limits assumed): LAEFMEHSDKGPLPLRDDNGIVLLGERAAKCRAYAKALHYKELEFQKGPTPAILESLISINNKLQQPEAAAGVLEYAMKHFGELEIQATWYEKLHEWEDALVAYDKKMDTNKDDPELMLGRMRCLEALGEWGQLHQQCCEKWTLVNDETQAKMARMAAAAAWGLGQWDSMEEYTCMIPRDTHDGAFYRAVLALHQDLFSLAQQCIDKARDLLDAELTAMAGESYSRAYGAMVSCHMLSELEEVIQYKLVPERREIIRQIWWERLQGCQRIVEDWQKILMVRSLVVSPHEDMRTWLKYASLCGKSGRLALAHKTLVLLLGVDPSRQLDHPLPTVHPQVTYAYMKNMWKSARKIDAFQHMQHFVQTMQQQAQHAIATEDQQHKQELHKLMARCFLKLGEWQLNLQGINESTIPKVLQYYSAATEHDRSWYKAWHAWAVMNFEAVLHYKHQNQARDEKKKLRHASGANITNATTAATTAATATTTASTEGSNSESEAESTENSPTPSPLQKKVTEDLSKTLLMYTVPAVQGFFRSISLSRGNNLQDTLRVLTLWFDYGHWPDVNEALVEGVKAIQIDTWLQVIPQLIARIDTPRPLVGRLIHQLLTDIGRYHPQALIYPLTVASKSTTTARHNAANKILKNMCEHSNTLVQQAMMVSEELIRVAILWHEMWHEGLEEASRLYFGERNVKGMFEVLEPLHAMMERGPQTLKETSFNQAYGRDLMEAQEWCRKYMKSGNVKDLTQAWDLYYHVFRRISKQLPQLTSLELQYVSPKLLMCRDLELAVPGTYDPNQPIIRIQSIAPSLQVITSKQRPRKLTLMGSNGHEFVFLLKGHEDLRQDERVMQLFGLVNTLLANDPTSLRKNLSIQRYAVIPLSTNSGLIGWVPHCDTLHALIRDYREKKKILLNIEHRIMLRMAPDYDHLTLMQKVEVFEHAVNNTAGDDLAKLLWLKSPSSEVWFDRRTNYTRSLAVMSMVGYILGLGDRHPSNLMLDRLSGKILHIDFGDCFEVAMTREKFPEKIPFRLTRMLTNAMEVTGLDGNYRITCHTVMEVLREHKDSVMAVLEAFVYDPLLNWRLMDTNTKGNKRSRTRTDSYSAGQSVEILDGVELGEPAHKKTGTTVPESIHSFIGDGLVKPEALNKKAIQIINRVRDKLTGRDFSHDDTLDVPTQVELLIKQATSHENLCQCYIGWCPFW
T3 sequence (O00329 with tags, fused parts or gaps limits assumed): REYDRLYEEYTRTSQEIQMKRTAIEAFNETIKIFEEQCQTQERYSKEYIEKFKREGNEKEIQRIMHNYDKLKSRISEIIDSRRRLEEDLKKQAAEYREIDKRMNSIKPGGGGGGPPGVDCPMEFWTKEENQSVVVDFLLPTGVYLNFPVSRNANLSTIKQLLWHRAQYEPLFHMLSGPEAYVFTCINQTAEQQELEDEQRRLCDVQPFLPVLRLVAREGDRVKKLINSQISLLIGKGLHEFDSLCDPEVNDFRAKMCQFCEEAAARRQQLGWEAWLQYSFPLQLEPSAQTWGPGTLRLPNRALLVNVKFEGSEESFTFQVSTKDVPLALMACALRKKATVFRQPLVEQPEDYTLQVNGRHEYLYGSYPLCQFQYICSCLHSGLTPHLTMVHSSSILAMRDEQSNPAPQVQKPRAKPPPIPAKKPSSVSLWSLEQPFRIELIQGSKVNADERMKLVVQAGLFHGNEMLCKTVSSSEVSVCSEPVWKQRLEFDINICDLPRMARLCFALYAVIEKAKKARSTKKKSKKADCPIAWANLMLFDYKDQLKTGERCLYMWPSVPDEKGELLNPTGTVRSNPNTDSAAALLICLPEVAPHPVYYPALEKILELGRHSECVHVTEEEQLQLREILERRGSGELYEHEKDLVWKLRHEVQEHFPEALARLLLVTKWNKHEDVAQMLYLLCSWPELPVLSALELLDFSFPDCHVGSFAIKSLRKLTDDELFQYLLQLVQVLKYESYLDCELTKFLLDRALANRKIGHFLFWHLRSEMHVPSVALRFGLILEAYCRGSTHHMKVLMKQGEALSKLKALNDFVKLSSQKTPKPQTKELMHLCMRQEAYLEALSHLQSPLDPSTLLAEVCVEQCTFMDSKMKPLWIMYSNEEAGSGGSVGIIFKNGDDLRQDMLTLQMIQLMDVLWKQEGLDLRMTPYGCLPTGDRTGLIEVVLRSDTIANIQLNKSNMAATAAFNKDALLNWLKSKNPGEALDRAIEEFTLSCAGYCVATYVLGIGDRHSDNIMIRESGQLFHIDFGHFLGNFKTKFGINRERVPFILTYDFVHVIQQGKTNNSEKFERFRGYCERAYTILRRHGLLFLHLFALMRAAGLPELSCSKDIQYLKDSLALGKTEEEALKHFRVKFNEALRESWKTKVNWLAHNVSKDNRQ

Consider `CCn1cc(-n2c(=O)n(C)c3cnc4ccc(-c5ccc(OC)c(OC)c5)cc4c32)c(C)n1` [Example 1.6, 8-(3,4-Dimethoxy-phenyl)-1-(1-ethyl-3-methyl-1H-pyrazol-4-yl)-3-methyl-1,3-dihydro-imidazo[4,5-c]quinolin-2-one], for which the half-inhibitory concentration (IC50) turned out to be 10 nM at mTOR, 157 nM on PI3K gamma and 11 nM on PI3K delta. Moreover, in series [1], the Papp A→B was found to be 31.6 ×10⁻⁶ cm/s.
Turning to `COc1ccc(-c2ccc3ncc4c(c3c2)n(-c2cn(C)nc2C)c(=O)n4C)cn1` [Example 2.5, 1-(1,3-Dimethyl-1H-pyrazol-4-yl)-8-(6-methoxy-pyridin-3-yl)-3-methyl-1,3-dihydro-imidazo[4,5-c]quinolin-2-one], the half-maximal inhibitory concentration (IC50) on mTOR is 9 nM; at PI3K gamma it was 390 nM; on PI3K delta it was 10 nM. Further, the Papp A→B in series [1] stood at 38.4 ×10⁻⁶ cm/s.
Turning to `CCn1cc(-n2c(=O)n(C)c3cnc4ccc(-c5ccc(OC)nc5)cc4c32)c(C)n1` [Example 2.7, 1-(1-Ethyl-3-methyl-1H-pyrazol-4-yl)-8-(6-methoxy-pyridin-3-yl)-3-methyl-1,3-dihydro-imidazo[4,5-c]quinolin-2-one], the concentration for half-maximal inhibition (IC50) at mTOR stood at 13 nM; on PI3K gamma, 217 nM; on PI3K delta, 19 nM. In series [1], the Papp A→B was found to be 21.5 ×10⁻⁶ cm/s.
As for `CCOc1ccc(-c2ccc3ncc4c(c3c2)n(-c2c(C)nn(C)c2C)c(=O)n4C)cn1` [Example 3.3, 8-(6-Ethoxy-pyridin-3-yl)-3-methyl-1-(1,3,5-trimethyl-1H-pyrazol-4-yl)-1,3-dihydro-imidazo[4,5-c]quinolin-2-one], the IC50 at mTOR worked out at 651 nM; at PI3K gamma, 309 nM; at PI3K delta it was 148 nM. Further, the Papp A→B in series [1] stood at 21 ×10⁻⁶ cm/s.
As for `CCOc1ccc(-c2ccc3ncc4c(c3c2)n(-c2cn(C(C)C)nc2C)c(=O)n4C)cn1` [Example 3.7, 8-(6-Ethoxy-pyridin-3-yl)-1-(1-isopropyl-3-methyl-1H-pyrazol-4-yl)-3-methyl-1,3-dihydro-imidazo[4,5-c]quinolin-2-one], the IC50 came to 23 nM on mTOR, 303 nM at PI3K gamma and 43 nM at PI3K delta. The Papp A→B in series [1] is 27.8 ×10⁻⁶ cm/s.
As for `CCOc1ccc(-c2ccc3ncc4c(c3c2)n(-c2cn(CC(=O)N(C)C)nc2C)c(=O)n4C)cn1` [Example 3.9, 2-{4-[8-(6-Ethoxy-pyridin-3-yl)-3-methyl-2-oxo-2,3-dihydro-imidazo[4,5-c]quinolin-1-yl]-3-methyl-pyrazol-1-yl}-N,N-dimethyl-acetamide], the half-maximal inhibitory concentration (IC50) at mTOR turned out to be 11 nM; on PI3K delta, 112 nM. In series [1], the Papp A→B is 14.8 ×10⁻⁶ cm/s.
Take `Cc1nn(C)cc1-n1c(=O)n(C)c2cnc3ccc(-c4ccc(N(C)C)nc4)cc3c21` [Example 4.5, 8-(6-Dimethylamino-pyridin-3-yl)-1-(1,3-dimethyl-1H-pyrazol-4-yl)-3-methyl-1,3-dihydro-imidazo[4,5-c]quinolin-2-one]: the half-maximal inhibitory concentration (IC50) on mTOR was 22 nM; at PI3K gamma, 292 nM; at PI3K delta, 17 nM. Further, the Papp A→B in series [1] was 16.1 ×10⁻⁶ cm/s.
For `CCNc1cc(-c2ccc3ncc4c(c3c2)n(-c2cn(C)nc2Cl)c(=O)n4C)cnc1C` [Example 87.2, 1-(3-Chloro-1-methyl-1H-pyrazol-4-yl)-8-(5-ethylamino-6-methyl-pyridin-3-yl)-3-methyl-1,3-dihydro-imidazo[4,5-c]quinolin-2-one], the IC50 is < 3 nM at mTOR and 19 nM on PI3K delta. The Papp A→B in series [1] was found to be 29.9 ×10⁻⁶ cm/s.
Regarding `Cc1nn(C)cc1-n1c(=O)n(C)c2cnc3ccc(-c4cnc5c(ccn5C)c4)cc3c21` [Example 116, 1-(1,3-Dimethyl-1H-pyrazol-4-yl)-3-methyl-8-(1-methyl-1H-pyrrolo[2,3-b]pyridin-5-yl)-1,3-dihydro-imidazo[4,5-c]quinolin-2-one], the IC50 at mTOR came out at 15 nM; at PI3K gamma it was 236 nM; on PI3K delta, 16 nM.
In the same order, the values of `CNC(=O)c1cc(-c2ccc3ncc4c(c3c2)n(-c2cn(C)nc2C)c(=O)n4C)cnc1OC` [Example 125.1, 5-[1-(1,3-Dimethyl-1H-pyrazol-4-yl)-3-methyl-2-oxo-2,3-dihydro-1H-imidazo[4,5-c]quinolin-8-yl]-2-methoxy-N-methyl-nicotinamide] are 51 nM, 363 nM and 26 nM.
Regarding `COc1ncc(-c2ccc3ncc4c(c3c2)n(-c2cn(C)nc2C)c(=O)n4C)cc1N` [Example 127, 8-(5-Amino-6-methoxy-pyridin-3-yl)-1-(1,3-dimethyl-1H-pyrazol-4-yl)-3-methyl-1,3-dihydro-imidazo[4,5-c]quinolin-2-one], the values for the half-maximal inhibitory concentration (IC50) on mTOR, on PI3K gamma and on PI3K delta were 5 nM, 121 nM and 9 nM, respectively.
With `CCNc1cc(-c2ccc3ncc4c(c3c2)n(-c2cn(CC)nc2C)c(=O)n4C)cnc1CO` [Example 155.2, 8-(5-Ethylamino-6-hydroxymethyl-pyridin-3-yl)-1-(1-ethyl-3-methyl-1H-pyrazol-4-yl)-3-methyl-1,3-dihydro-imidazo[4,5-c]quinolin-2-one], the half-maximal inhibitory concentration (IC50) on mTOR was found to be 12 nM; on PI3K delta, 22 nM. For the same compound, in series [1], the Papp A→B was 10.9 ×10⁻⁶ cm/s.
With `Cc1nn(C)cc1-n1c(=O)n(C)c2cnc3ccc(-c4cncc(N5CCOCC5)c4)cc3c21` [Example 175.1, 1-(1,3-Dimethyl-1H-pyrazol-4-yl)-3-methyl-8-(5-morpholin-4-yl-pyridin-3-yl)-1,3-dihydro-imidazo[4,5-c]quinolin-2-one], the 50% inhibitory concentration (IC50) on mTOR came to 6 nM; at PI3K delta, 70 nM. Also, the Papp A→B in series [1] was 7.8 ×10⁻⁶ cm/s.
In the case of `Cc1nn(C)cc1-n1c(=O)n(C)c2cnc3ccc(-c4cncc(N5CCC5)c4)cc3c21` [Example 179, 8-(5-Azetidin-1-yl-pyridin-3-yl)-1-(1,3-dimethyl-1H-pyrazol-4-yl)-3-methyl-1,3-dihydro-imidazo[4,5-c]quinolin-2-one], the half-inhibitory concentration (IC50) on mTOR is 13 nM; at PI3K delta, 87 nM. Further, in series [1], the Papp A→B was 16 ×10⁻⁶ cm/s.
